# Test system: liver microtissue (MT) of HepaRG hepatocyte strain
# Assay: Evaluation of drug induced fatty liver toxicity by impedance of liver microtissue
# Type: cell-based
# Conditions: 0.5 M oleic acid
# Protocol: 1. Completely differentiated HepaRG hepatocyte strain was obtained at the density of 4,000,000 cells/100 uL.
# 2. A sample was prepared according to the manual of C253000 provided by Microfit Co. 10 μL of cell suspension #1 was distributed in each well to allow 400,000 HepaRG cells to be placed per well. This step can be performed using a 3D cell preparation method such as a micropattern plate method or a hanging drop method.
# 3. The cells were cultured for 3 days and the cell culture medium was replaced every day.
# 4. On day 4, the microtissue (MT) was distributed in a 96-well plate (Ultra-Low attachment surface multiple well plate, Corning) using a 100 uL blue tip.
# 5a. The liver microtissue (MT) distributed in the Ultra-Low attachment surface multiple well plate was treated with 0.5 M oleic acid, a fatty liver toxicity inducing drug.
# 6a. A 200 μL pipette was inserted in the end of the first glass tube of Example 1 and the liver microtissue (MT) and the culture medium were sucked through the other end to fill the glass tube with preventing air bubble formation.
# 7a. The glass tube was inserted between the two Y tubes (third tube and fourth tube) of Example 1 and Example 4 with preventing air bubble formation.
# 8a. Air bubbles in the liquid were removed and let the wire of each Y tube shared the same liquid.
# 9a. The working electrode/sensing electrode of the potentiostat or impedance analyzer was connected to the gold (Au) wire protruding out of the Y tube (iii tube) and the reference/counter electrode was connected to the platinum (Pt) wire protruding out of the other Y tube (III tube).
# 10a. The liver microtissue (MT) was placed at the end of the plastic tip by using a 1 mL syringe.
# 11a. The pressure was set at −5 mPa by using the syringe pump and the liver microtissue (MT) was fixed at the plastic tip by the pressure difference.
# 12a. Alternating current impedance was measured at a fixed voltage of 50 mV from 10^6 Hz to 10^−2 Hz to measure the impedance of the liver microtissue (MT) and the PBS buffer.
# 13a. The pressure of the syringe pump was set at 10 mPa to allow the liver microtissue (MT) to be removed from the plastic tip.
# 14a. Impedance was measured at a fixed voltage of 50 mV from 10^6 Hz to 10^−2 Hz to measure the impedance of the PBS buffer (background).
# 15a. The interior resistance, the exterior resistance and the capacitance of 12a and the resistance and the capacitance of 14a were measured by using a Fitting program (e.g. Zview).
# 16a. The interior resistance, the exterior resistance and the capacitance of the liver microtissue (MT) were compared with those of the normal control group. At that time, the normal control group indicates the liver microtissue (MT) not treated with oleic acid which was regarded as a fatty liver toxicity inducing drug.
# 17a. […]
smiles,measurement,setting,value
CCCCCCCC/C=C\CCCCCCCC(=O)O [oleic acid],fat formation in the liver microtissue (MT),,fat was formed
same,impedance of the liver microtissue (MT),"compared with the normal control group, FIG. 2a, 2b, 3",increased
same,resistance of the liver microtissue (MT),"compared with the normal control group, according to the pressure changes, FIG. 3",increased
same,internal resistance of the liver microtissue (MT),"fitted with Zview, compared with normal control",increased
